Earlier results in patent US10398709B2, “Compositions for the treatment of cataracts” (Catacore, Inc., priority 2015, dated 2019).

Tests used:
[1] = system: dissected rabbit cataractous lenses; conditions: dissected rabbit cataractous lenses in vitro
[2] = system: cataract; conditions: in vivo in dogs
[3] = system: preformed protein aggregates (mutant crystallins); conditions: both in vitro and in cell-transfection experiments

Row | Compound | cataract severity and transparency [1] | cataract severity [2] | preformed protein aggregates [3]
1 | CC(C)=CCC[C@@H](C)[C@H]1CC[C@@]2(C)C3=C(CC[C@]12C)[C@@]1(C)CC[C@H](O)C(C)(C)[C@@H]1CC3 [lanosterol, 3β-hydroxy-8,24-lanostadiene] | reduce cataract severity and increase transparency | reduce cataract severity | significantly decreased
2 | CC(C)CCC[C@@H](C)[C@H]1CC[C@H]2[C@@H]3CC=C4C[C@@H](O)CC[C@]4(C)[C@H]3CC[C@]12C [cholesterol] | – | – | not
